Data reported in patent publication US9987296B2, “Compositions including anthocyanin or anthocyanidin for the prevention or treatment of Articular cartilage-associated conditions” (priority 2008, dated 2018).
Read-outs that look alike come from different tables or passages of the source.

Key:
[1] = tested on: osteoarthritic synovium explants; conditions: cited from earlier work
[2] = tested on: rodent pancreatic beta-cells; conditions: in culture, with 4 and 10 mM glucose; cited from earlier work
[3] = tested on: Human articular chondrocytes; experiment: Cell viability (calcein AM / ethidium homodimer staining); format: cell-based; conditions: concentrations above 100 uM up to 500 uM, 96 hours
Text: Chondrocytes were isolated from non-arthritic regions of adult human articular cartilage (N=3 donors) and expanded in tissue culture flasks in DMEM supplemented with 10% calf serum.
At higher concentrations, the color of the anthocyanin interfered with the spectrophotometer reading; therefore, cell viability was additionally measured with calcein staining as follows: Live and dead cells were simultaneously viewed in situ with a confocal microscope (LSM 510; Zeiss, Wetzlar, Germany), using a fluorescent double stain. Calcein AM (1 uM; Invitrogen, Carlsbad, Calif.), a fluorescein derivative that is metabolized by nonspecific esterase present in viable cells, was used to stain live cells. The use of 8 uM ethidium homodimer (Invitrogen), a nucleic acid stain that is excluded by intact cell membranes, enabled visualization of the nuclei of dead cells. After 96-hour exposure to the appropriate concentration of anthocyanins, chondrocytes were cultured in DMEM supplemented with Calcein AM and ethidium homodimer for 45 minutes. Live and dead cells were counted using an automated image analysis script written in Matlab (MathWorks, Natick, Mass.) to measure percentage cell viability.

bovine chondrocytes = experiment: Matrix synthesis rate (35S) of bovine chondrocytes in alginate beads; format: cell-based; conditions: 100 uM with IL-1 5 ng/mL
Protocol: Chondrocytes were isolated from weight-bearing regions of young (18-30 months old) bovine femoral condyles. Primary cells were obtained from 3 different animals and suspended in beads of 2% alginate. The alginate beads were precultured in DMEM supplemented with 10% calf serum for 48 hours. Before the experiments, the chondrocytes were serum-starved overnight with 0.1% serum to reduce the effect of serum and to reduce anabolic activity to baseline.
For each treatment condition, 10 millicuries of ^35S was added to each well and incubated for the appropriate duration. At the appropriate harvest time point, each well was then washed extensively with PBS (5-6 times with 500 uL, of PBS), before trypsin and EDTA was added to dissolve alginate. After 20-30 minutes, the dissolved gels and released cells were transferred into 1.5 ml Eppendorf tubes with 150 uL, of calf serum (to promote pellet formation) and the cells were centrifuged at 2000 rpm for 5 minutes. The supernatant was removed via pipette without disturbing the cell pellet. The remaining cell and supernatant (approximately 300 ul) was then mixed with 500 uL of PBS and transferred to scintillation vials, to which 5 ml of scintillation fluid was dispensed. Each scintillation vial was capped, thoroughly vortexed and then placed in a gamma counter to measure gamma radiation emission for each sample. Each sample was measured for 5 minutes.

Molecule: N[C@H]1C(O)O[C@H](CO)[C@@H](O)[C@@H]1O (stereo partly drawn) [glucosamine]
- increase of HA production ([1]; 0.5 mM): did not
- increase of HA production ([1]; 5 mM): approximately 2 fold

Molecule: OC[C@H]1OC(Oc2cc3c(O)cc(O)cc3[o+]c2-c2ccc(O)cc2)[C@H](O)[C@@H](O)[C@H]1O.[Cl-] (stereo partly drawn) [pelargonidin-3-galactoses, reference compound]
- insulin secretion [2]: stimulate insulin secretion

Molecule: Delphinidin-3-O-Glucoside
- insulin secretion [2]: stimulate insulin secretion
- toxicity relative to the other compounds tested [3]: least toxic at 200 μM
- matrix synthesis rates (anti-arthritic effect) (bovine chondrocytes; 12 hours, listed as Delphinidin-3-O-glucoside): reversed the effect of IL-1 suppression on matrix synthesis rates
- matrix synthesis rates (anti-arthritic effect) (bovine chondrocytes; 12 hours, listed as delphinidin-3-0-glucoside): anti-arthritic effect
- matrix synthesis rates (anti-arthritic effect) (bovine chondrocytes; 12 hours, listed as delphinidin-3-O-glucoside): anti-arthritic effect
- matrix synthesis rates (anti-arthritic effect) (bovine chondrocytes; 24 hours, listed as Delphinidin-3-O-glucoside): reversed the effect of IL-1 suppression on matrix synthesis rates
- matrix synthesis rates (anti-arthritic effect) (bovine chondrocytes; 24 hours, listed as delphinidin-3-0-glucoside): anti-arthritic effect
- matrix synthesis rates (anti-arthritic effect) (bovine chondrocytes; 24 hours, listed as delphinidin-3-O-glucoside): anti-arthritic effect

Molecule: Oc1ccc(-c2[o+]c3cc(O)cc(O)c3cc2O)cc1.[Cl-] [Pelargonidin Chloride]
- insulin secretion [2]: stimulate insulin secretion
